Laboratory results reported in ChEMBL document CHEMBL3044541, “Control of crown rot-causing fungal pathogens of banana by inorganic salts and a surfactant” (Crop Prot, 2007).
Calls of active or inactive are those of the source. The calls are words filed in the database; no cut-off is given here.

How the values were obtained:
Thielaviopsis paradoxa [1] = assay: Antifungal activity against Ceratocystis paradoxa assessed as inhibition of conidium germination at 5 g/l incubated for 15 min followed by compound washout measured after 2 days by microscopic analysis in absence of surfactant APSA 80; assay type: functional, organism-based
Colletotrichum musae [2] = assay: Antifungal activity against Colletotrichum musae assessed as inhibition of conidium germination at 5 g/l incubated for 15 min followed by compound washout measured after 2 days by microscopic analysis in absence of surfactant APSA 80; assay type: functional, organism-based
Lasiodiplodia theobromae [3] = assay: Antifungal activity against Lasiodiplodia theobromae assessed as inhibition of conidium germination at 5 g/l incubated for 15 min followed by compound washout measured after 2 days by microscopic analysis in absence of surfactant APSA 80; assay type: functional, organism-based
Fusarium verticillioides [4] = assay: Growth inhibition of Fusarium verticillioides assessed as inhibition of mycelial growth up to 160 g/l incubated for 15 min followed by compound washout measured after 7 days in absence of surfactant APSA 80; assay type: functional
Fusarium verticillioides [5] = assay: Growth inhibition of Fusarium verticillioides assessed as inhibition of mycelial growth up to 160 g/l incubated for 15 min followed by compound washout measured after 7 days in presence of surfactant APSA 80; assay type: functional, organism-based
Colletotrichum musae [6] = assay: Growth inhibition of Colletotrichum musae assessed as inhibition of mycelial growth up to 160 g/l incubated for 15 min followed by compound washout measured after 7 days in absence of surfactant APSA 80; assay type: functional
Colletotrichum musae [7] = assay: Growth inhibition of Colletotrichum musae assessed as inhibition of mycelial growth up to 160 g/l incubated for 15 min followed by compound washout measured after 7 days in presence of surfactant APSA 80; assay type: functional, organism-based
Thielaviopsis paradoxa [8] = assay: Growth inhibition of Ceratocystis paradoxa assessed as inhibition of mycelial growth up to 160 g/l incubated for 15 min followed by compound washout measured after 7 days in absence of surfactant APSA 80; assay type: functional, organism-based
Thielaviopsis paradoxa [9] = assay: Growth inhibition of Ceratocystis paradoxa assessed as inhibition of mycelial growth up to 160 g/l incubated for 15 min followed by compound washout measured after 7 days in presence of surfactant APSA 80; assay type: functional
Colletotrichum musae [10] = assay: Antifungal activity against Colletotrichum musae assessed as inhibition of conidium germination at 5 g/l incubated for 15 min followed by compound washout measured after 7 days by microscopic analysis in presence of surfactant APSA 80; assay type: functional, organism-based
Thielaviopsis paradoxa [11] = assay: Antifungal activity against Ceratocystis paradoxa assessed as inhibition of conidium germination at 5 g/l incubated for 15 min followed by compound washout measured after 7 days by microscopic analysis in presence of surfactant APSA 80; assay type: functional, organism-based
Lasiodiplodia theobromae [12] = assay: Antifungal activity against Lasiodiplodia theobromae assessed as inhibition of conidium germination at 5 g/l incubated for 15 min followed by compound washout measured after 7 days by microscopic analysis in presence of surfactant APSA 80; assay type: functional, organism-based
Fusarium verticillioides [13] = assay: Antifungal activity against Fusarium verticillioides assessed as inhibition of conidium germination at 5 g/l incubated for 15 min followed by compound washout measured after 2 days by microscopic analysis in absence of surfactant APSA 80; assay type: functional, organism-based
Fusarium verticillioides [14] = assay: Antifungal activity against Fusarium verticillioides assessed as inhibition of conidium germination at 5 g/l incubated for 15 min followed by compound washout measured after 7 days by microscopic analysis in presence of surfactant APSA 80; assay type: functional, organism-based

Row | SMILES | inhibition (Thielaviopsis paradoxa [1]) | inhibition (Colletotrichum musae [2]) | inhibition (Lasiodiplodia theobromae [3]) | Activity (Fusarium verticillioides [4]) | Activity (Fusarium verticillioides [5]) | Activity (Colletotrichum musae [6]) | Activity (Colletotrichum musae [7]) | Activity (Thielaviopsis paradoxa [8]) | Activity (Thielaviopsis paradoxa [9]) | inhibition (Colletotrichum musae [10]) | inhibition (Thielaviopsis paradoxa [11]) | inhibition (Lasiodiplodia theobromae [12]) | inhibition (Fusarium verticillioides [13]) | inhibition (Fusarium verticillioides [14])
1 | O=C([O-])O.[Na+] | Active | Active | Active | inactive | inactive | inactive | inactive | inactive | inactive | Active | Active | Active | Active | Active
2 | O=C([O-])[O-].[Na+].[Na+] | – | – | – | inactive | – | inactive | – | – | – | – | – | – | – | –
